From patent US20220315578A1, “BRD9 BIFUNCTIONAL DEGRADERS AND THEIR METHODS OF USE” (NOVARTIS AG, priority 2019, published 2022)

Biological target: T1, BRD9-GFP (Homo sapiens, UniProt Q9H8M2)
T1 construct: CHYSEL (2A cis-acting hydrolase element) remnant after GFP; mCherry is split off as a separate protein (C); expressed in transfected cells; host or cells: HEK293A cells (Invitrogen R70507), lentiviral transduction with pLenti6-BRD9-GFP-CHYSEL-mCherry, blasticidin selection
T1 sequence (Q9H8M2 1-597): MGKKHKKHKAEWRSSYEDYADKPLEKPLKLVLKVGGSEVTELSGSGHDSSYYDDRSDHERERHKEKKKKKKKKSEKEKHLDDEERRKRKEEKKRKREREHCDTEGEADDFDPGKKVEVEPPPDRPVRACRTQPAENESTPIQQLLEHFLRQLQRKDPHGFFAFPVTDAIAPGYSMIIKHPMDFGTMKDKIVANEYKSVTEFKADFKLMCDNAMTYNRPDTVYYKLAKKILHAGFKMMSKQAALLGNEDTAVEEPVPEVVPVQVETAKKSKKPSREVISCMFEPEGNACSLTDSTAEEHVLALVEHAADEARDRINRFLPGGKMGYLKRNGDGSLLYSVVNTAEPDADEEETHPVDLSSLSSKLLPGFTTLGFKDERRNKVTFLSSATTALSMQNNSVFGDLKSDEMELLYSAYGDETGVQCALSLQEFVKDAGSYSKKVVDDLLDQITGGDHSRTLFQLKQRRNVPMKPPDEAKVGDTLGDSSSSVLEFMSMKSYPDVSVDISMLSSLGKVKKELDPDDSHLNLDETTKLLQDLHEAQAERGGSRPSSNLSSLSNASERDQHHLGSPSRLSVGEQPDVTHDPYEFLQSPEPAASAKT
Assay: BRD9-GFP protein abundance flow cytometry assay in HEK293A cells
Format: cell-based
Conditions: HEK293A-BRD9-GFP-CHYSEL-mCherry cells; for BRD9 Deg Amax %: 24 h, % protein remaining at the concentration at which maximum degradation is seen; for DC50: 24 h at 37° C., 10-point 1:3 dilution, concentration at which 50% maximal degradation was observed
Protocol: Compounds of the invention were tested in the following cellular assays. The terms in Table 1 are defined as follows: DC50 refers to the concentration at which 50% maximal degradation was observed; deg Amax is the extent of degradation and the value refers to the % protein remaining at the concentration at which maximum degradation is seen.
BRD9-GFP protein abundance flow cytometry assay in HEK293A cells: Degradation of BRD9 was measured in HEK293A cells expressing BRD9-GFP and mCherry from a stably integrated second generation bicistronic BRD9-GFP-CHYSELmCherry construct. Reduction of the GFP signal measured by flow cytometry served as readout for BRD9 degradation after degrader treatment.
The bicistronic BRD9-GFP-CHYSEL-mCherry construct is based on a pLenti6-DEST vector backbone where a GFP-CHYSEL-mCherry cassette was synthesized and inserted downstream of the DEST cassette by Gibson assembly resulting in the new gateway compatible vector pLenti6-DEST-GFP-CHYSEL-mCherry to allow Gateway cloning with pENTR221-BRD9 (w/o ATG) to obtain the final sensor construct pLenti6-BRD9-GFP-CHYSEL-mCherry.
HEK293 Å-BRD9-GFP-CHYSEL-mCherry sensor cells were generated by lentiviral vector transduction using the pLenti6-BRD9-GFP-CHYSEL-mCherry sensor construct described before. […] The mix was incubated for another 20 min at RT and then added to 1 ml of a freshly prepared suspension of HEK293FT cells in a well of a 6-well plate (concentration 1.2×10^6 cells/ml). 1 day after transfection, the medium was replaced with 1.5 ml of complete growth medium (DMEM high Glucose+10% FCS+1% L-Glutamine+1% NEAA+1% NaPyr.). 48 h post transfection supernatant containing viral transducing particles was collected and frozen at −80° C. […] Infection was performed with […] of collected supernatant containing viral transducing particles in 1 ml medium including 8 μg/ml polybrene. 24 h post infection, stably transfected cells were selected with blasticidin at a concentration of 8 μg/ml.
Stable HEK293 Å-BRD9-GFP-CHYSEL-mCherry cells were maintained in complete growth medium (DMEM high Glucose+10% FCS+1% L-Glutamine+1% NEAA+1% NaPyr.) with passaging performed twice per week. On Day 0, HEK293 Å-BRD9-GFP-CHYSEL-mCherry cells were seeded at 10,000 cells/well in a 96-well microtiter plate in […] complete medium. On Day 1, cells were treated in duplicate with 10-point 1:3 dilution series of compound using the HP D300 Digital Dispenser (Tecan). DMSO concentrations were normalized across the plate to 0.1%. On Day 2, after 24 h of incubation at 37° C., treatment media was discarded, cells rinsed with 100 ul/well PBS and then detached using 40 ul trypsin/well for 5 min. Trypsin was neutralized with 100 ul/well PBS+20% FCS). Flow cytometry was performed on the samples using the Beckman Coulter CytoFLEX flow cytometer. Cell identification was then performed using forward (FSC) vs. side scatter (SSC) plots. Single cell discrimination is performed using FSC-Width (FSC-W) vs. FSC-Height (FSC-H) plots. Median GFP/mCherry ratio values for 5,000 single cells are used to determine BRD9 levels. Median GFP/mCherry ratio values from HEK293 Å-mCherry are used as a background signal and thus defining 0% BRD9 signal. Median GFP/mCherry ratio values from DMSO treated HEK293 Å-BRD9-GFP-CHYSEL-mCherry are used to define 100% BRD9 signal for subsequent DC50 curves (concentration at 50% BRD9 degradation). Concentration response curves plotting relative reduction of the GFP/mCherry ratio signal (measured by flow cytometry) versus 10 compound concentrations (starting concentration […], 3 fold dilution steps) of the compounds allowed generation of DC50 values. Data is shown in Tables 2 and 3, in which, DC50 refers to the concentration at which 50% maximal degradation was observed; deg Amax is the extent of degradation and the value refers to the % protein remaining at the concentration at which maximum degradation is seen.

| SMILES | BRD9 Deg Amax % | DC50 |
| --- | --- | --- |
| COc1ccc(C(=O)N2CCC(CN3CCC(Oc4c(OC)cc(-c5cn(C)c(=O)c6cnccc56)cc4OC)CC3)CC2)cc1N1CCC(=O)NC1=O [Compound A6, 1-(5-(4-((4-(2,6-Dimethoxy-4-(2-methyl-1-oxo-1,2-dihydro-2,7-naphthyridin-4-yl)phenoxy)piperidin-1-yl)methyl)piperidine-1-carbonyl)-2-methoxyphenyl)dihydropyrimidine-2,4(1H,3H)-dione] | 12.25% | 3 nM |
| COc1cc(-c2cn(C)c(=O)c3cnccc23)ccc1OCC1CCN(CC2CCN(C(=O)c3ccc(OC)c(N4CCC(=O)NC4=O)c3)CC2)CC1 [Compound A5, 1-(2-Methoxy-5-(4-((4-((2-methoxy-4-(2-methyl-1-oxo-1,2-dihydro-2,7-naphthyridin-4-yl)phenoxy)methyl)piperidin-1-yl)methyl)piperidine-1-carbonyl)phenyl)dihydropyrimidine-2,4(1H,3H)-dione] | 18.64% | 19 nM |
| COc1cc(-c2cn(C)c(=O)c(C)c2C)cc(OC)c1CCN1CCC(OC2CCN(C(=O)c3ccc(Cl)c(N4CCC(=O)NC4=O)c3)CC2)CC1 [Compound A21, 1-(2-Chloro-5-(4-((1-(2,6-dimethoxy-4-(1,4,5-trimethyl-6-oxo-1,6-dihydropyridin-3-yl)phenethyl)piperidin-4-yl)oxy)piperidine-1-carbonyl)phenyl)dihydropyrimidine-2,4(1H,3H)-dione] | 12.12% | 1 nM |
| COc1cc(-c2cn(C)c(=O)c3cnccc23)c(OC)cc1CCN1CCC(OC2CCN(C(=O)c3ccc(Cl)c(N4CCC(=O)NC4=O)c3)CC2)CC1 [Compound A39, 1-(2-Chloro-5-(4-((1-(2,5-dimethoxy-4-(2-methyl-1-oxo-1,2-dihydro-2,7-naphthyridin-4-yl)phenethyl)piperidin-4-yl)oxy)piperidine-1-carbonyl)phenyl)dihydropyrimidine-2,4(1H,3H)-dione] | 16.72% | 21 nM |

The next lines start with the values.

| BRD9 Deg Amax % | DC50 | SMILES |
| --- | --- | --- |
| 17.58% | 1 nM | CCCCn1cc(-c2ccc(O[C@H]3CCN(CC4CCN(C(=O)c5ccc(OC)c(N6CCC(=O)NC6=O)c5)CC4)C[C@@H]3F)c(OC)c2)c2ccncc2c1=O [Compound E32, 1-(5-(4-(((3S,4S)-4-(4-(2-Butyl-1-oxo-1,2-dihydro-2,7-naphthyridin-4-yl)-2-methoxyphenoxy)-3-fluoropiperidin-1-yl)methyl)piperidine-1-carbonyl)-2-methoxyphenyl)dihydropyrimidine-2,4(1H,3H)-dione] |
| 17.62% | 47 nM | CCCCn1cc(-c2cc(OC)c(CCN3CCC(OC4CCN(CCn5cccc(CN6CCC(=O)NC6=O)c5=O)CC4)CC3)cc2OC)c2ccncc2c1=O [Compound D3, 1-((1-(2-(4-((1-(4-(2-butyl-1-oxo-1,2-dihydro-2,7-naphthyridin-4-yl)-2,5-dimethoxyphenethyl)piperidin-4-yl)oxy)piperidin-1-yl)ethyl)-2-oxo-1,2-dihydropyridin-3-yl)methyl)dihydropyrimidine-2,4(1H,3H)-dione] |
| 16.75% | 1 nM | CCCCn1cc(-c2ccc(OC3CCN(CC4CCN(C(=O)c5ccc(Cl)c(N6CCC(=O)NC6=O)c5)CC4)CC3)c(OC)c2)c2ccncc2c1=O [Compound B6, 1-(5-(4-((4-(4-(2-butyl-1-oxo-1,2-dihydro-2,7-naphthyridin-4-yl)-2-methoxyphenoxy)piperidin-1-yl)methyl)piperidine-1-carbonyl)-2-chlorophenyl)dihydropyrimidine-2,4(1H,3H)-dione] |
| 18.38% | 2 nM | CCCCn1cc(-c2ccc(O[C@H]3CC[C@@H](OC4CCN(C(=O)c5ccc(OC)c(N6CCC(=O)NC6=O)c5)CC4)CC3)cc2)c2ccncc2c1=O [Compound E3, 1-(5-(4-(((cis)-4-(4-(2-butyl-1-oxo-1,2-dihydro-2,7-naphthyridin-4 yl)phenoxy)cyclohexyl)oxy)piperidine-1-carbonyl)-2-methoxyphenyl)dihydropyrimidine-2,4(1H,3H)-dione] |
